Test system: HeLa cells
Experiment: Western blot of cleaved caspases 3, 8, 9 and cleaved PARP
Format: cell-based, human
Settings: most notably 10 μM, 24 h
Description: The cells were seeded on 6 cm^2 cell culture dishes, and treated with sulfonamide compounds, at doses of 10 and 25 μM, for 24 h. The cells were then washed with cold PBS, which was followed by lysis with RIPA lysis buffer (10 mM Tris-HC1 pH =8, 1 mM EDTA, 1 mM EGTA, 140 mM NaCl, 1% TritonX-100, 0.1 SDS, 0.1% Sodium deoxycholate), 1X phosphates and protease inhibitor (Santa Cruz Biotechnology, Dallas, USA). The acquired supernatants from the lysates which were centrifuged at 12000 g, +4 °C, for 10 min, were transferred to new tubes. Protein concentration was detected using the protein assay kit BCA (Thermo Fisher Scientific, Waltham, MA). After a 30-min period of protein (50 µg) standing in 10% SDS-PAGE gel at 50 V and at 80 V for 3 h, those were blotted to PVDF membrane at 70 V for 5 min (Bio-Rad Turbo Transfer System, Segrate (MI), Italy). After embedding in 1X TBST (12,1 gr Tris, pH 7.5, 70 gr NaCl, 0.1% Tween-20) containing 5% dry milk or 5% BSA, the primer monoclonal antibodies Cleaved Caspase 3,8,9, Cleaved PARP (Millipore) CA IX and Beta-actin, were applied to the membrane and left overnight, which was followed by washing with 1X TBS-T and an incubation period with secondary antibodies of HRP rabbit (Cell signaling, Danvers, MA, USA) or mouse (1/10.000) for 60 min. […]

## NS(=O)(=O)c1ccc(CCN=Cc2cc(Cl)ccc2O)cc1 [Compound A-1]
  cleaved caspase 3, 8, 9 and c-PARP protein levels: significant increase

— paper PMC6211230, “Assessment of the antiproliferative and apoptotic roles of sulfonamide carbonic anhydrase IX inhibitors in HeLa cancer cell line” (Journal of Enzyme Inhibition and Medicinal Chemistry, 2018)
